From PubChem BioAssay AID1963842 (Molecular Pharmacology Branch, DTP, NCI, 2024)

Tested on: 677734-321-R-J1-PDC complex spheroid viability
Test: Anticancer human tumor 677734-321-R-J1-PDC patient-derived soft tissue sarcoma cell line growth inhibition [POLQ]
Settings: for IC50: curve of first compound; for viability, T/C: stronger effect = lower value
Outline: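 Patient-derived tumour cells were co-cultured with HUVEC and mesenchymal stem cells as multicellular spheroids at 37 °C. They were treated with POLQ inhibitors (novobiocin, ART-558, RP6685) alone or combined with other agents. Top concentrations were at or near clinical Cmax (otherwise 10 microM; SN-38 at 1 microM), decreasing in half-log steps.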

[1] = second compound 0.0316 µM, first compound 0.0316 µM
[2] = second compound 0.0316 µM, first compound 0.1 µM
[3] = second compound 0.0316 µM, first compound 0.316 µM
[4] = second compound 0.0316 µM, first compound 1 µM
[5] = second compound 0.0316 µM, first compound 3.16 µM
[6] = second compound 0.0316 µM, first compound 10 µM
[7] = second compound 0.1 µM, first compound 0.0316 µM
[8] = second compound 0.1 µM, first compound 0.1 µM
[9] = second compound 0.1 µM, first compound 0.316 µM
[10] = second compound 0.1 µM, first compound 1 µM
[11] = second compound 0.1 µM, first compound 3.16 µM
[12] = second compound 0.1 µM, first compound 10 µM
[13] = second compound 0.316 µM, first compound 0.0316 µM
[14] = second compound 0.316 µM, first compound 0.1 µM
[15] = second compound 0.316 µM, first compound 0.316 µM
[16] = second compound 0.316 µM, first compound 1 µM
[17] = second compound 0.316 µM, first compound 3.16 µM
[18] = second compound 0.316 µM, first compound 10 µM
[19] = second compound 1 µM, first compound 0.0316 µM
[20] = second compound 1 µM, first compound 0.1 µM
[21] = second compound 1 µM, first compound 0.316 µM
[22] = second compound 1 µM, first compound 1 µM
[23] = second compound 1 µM, first compound 3.16 µM
[24] = second compound 1 µM, first compound 10 µM
[25] = second compound 3.16 µM, first compound 0.0316 µM
[26] = second compound 3.16 µM, first compound 0.1 µM
[27] = second compound 3.16 µM, first compound 0.316 µM
[28] = second compound 3.16 µM, first compound 1 µM
[29] = second compound 3.16 µM, first compound 3.16 µM
[30] = second compound 3.16 µM, first compound 10 µM
[31] = second compound 10 µM, first compound 0.0316 µM
[32] = second compound 10 µM, first compound 0.1 µM
[33] = second compound 10 µM, first compound 0.316 µM
[34] = second compound 10 µM, first compound 1 µM
[35] = second compound 10 µM, first compound 3.16 µM
[36] = second compound 10 µM, first compound 10 µM
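Further: spheroids exposed to compounds for one week.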
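Wherever viability, T/C is given: 100% = vehicle DMSO treated spheroids.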

CC1COCCN1c1cc(-c2ccnn2C)c2ccnc(-c3ccn[nH]3)c2n1 (stereo not drawn) + COC1C(OC(N)=O)C(O)C(Oc2ccc3c(O)c(NC(=O)c4ccc(O)c(CC=C(C)C)c4)c(=O)oc3c2C)OC1(C)C
IC50 (second compound 0.0316 µM): 0.153 µM | IC50 (second compound 0.1 µM): 0.145 µM | IC50 (second compound 0.316 µM): 0.142 µM | IC50 (second compound 1 µM): 0.146 µM | IC50 (second compound 3.16 µM): 0.145 µM | IC50 (second compound 10 µM): 0.127 µM | viability, T/C [1]: 98.5% | viability, T/C [2]: 65.1% | viability, T/C [3]: 23.7% | viability, T/C [4]: 15.9% | viability, T/C [5]: 6.88% | viability, T/C [6]: 15.2% | viability, T/C [7]: 97.5% | viability, T/C [8]: 61.8% | viability, T/C [9]: 25.2% | viability, T/C [10]: 16.6% | viability, T/C [11]: 8.53% | viability, T/C [12]: 17.1% | viability, T/C [13]: 95.8% | viability, T/C [14]: 61.8% | viability, T/C [15]: 22.7% | viability, T/C [16]: 19.8% | viability, T/C [17]: 6.32% | viability, T/C [18]: 15.3% | viability, T/C [19]: 110% | viability, T/C [20]: 62.7% | viability, T/C [21]: 23.8% | viability, T/C [22]: 16.6% | viability, T/C [23]: 7.91% | viability, T/C [24]: 16.6% | viability, T/C [25]: 102% | viability, T/C [26]: 61.2% | viability, T/C [27]: 26.3% | viability, T/C [28]: 16.6% | viability, T/C [29]: 6.66% | viability, T/C [30]: 14.4% | viability, T/C [31]: 98.1% | viability, T/C [32]: 57.9% | viability, T/C [33]: 20.1% | viability, T/C [34]: 17.1% | viability, T/C [35]: 8.68% | viability, T/C [36]: 16.7%

CNCc1ccc(-c2[nH]c3cc(F)cc4c3c2CCNC4=O)cc1 + Nc1ccc(C#CCN(C(=O)Cc2ncc(C(F)(F)F)cc2C(F)(F)F)c2ccc(F)cc2)nn1
IC50 (second compound 0.0316 µM): > 10 µM | IC50 (second compound 0.1 µM): > 10 µM | IC50 (second compound 0.316 µM): > 10 µM | IC50 (second compound 1 µM): > 10 µM | IC50 (second compound 3.16 µM): > 10 µM | IC50 (second compound 10 µM): > 10 µM | viability, T/C [1]: 90.2% | viability, T/C [2]: 99.6% | viability, T/C [3]: 100% | viability, T/C [4]: 81% | viability, T/C [5]: 101% | viability, T/C [6]: 81.6% | viability, T/C [7]: 113% | viability, T/C [8]: 106% | viability, T/C [9]: 107% | viability, T/C [10]: 100% | viability, T/C [11]: 106% | viability, T/C [12]: 61.8% | viability, T/C [13]: 100% | viability, T/C [14]: 109% | viability, T/C [15]: 106% | viability, T/C [16]: 127% | viability, T/C [17]: 94.5% | viability, T/C [18]: 80.1% | viability, T/C [19]: 118% | viability, T/C [20]: 86.4% | viability, T/C [21]: 106% | viability, T/C [22]: 91.8% | viability, T/C [23]: 88.7% | viability, T/C [24]: 67.4% | viability, T/C [25]: 97.7% | viability, T/C [26]: 109% | viability, T/C [27]: 109% | viability, T/C [28]: 113% | viability, T/C [29]: 101% | viability, T/C [30]: 63.5% | viability, T/C [31]: 97.4% | viability, T/C [32]: 99.3% | viability, T/C [33]: 89.2% | viability, T/C [34]: 114% | viability, T/C [35]: 107% | viability, T/C [36]: 63.6%

COc1cc2cc(C(=O)CCC(=O)O)sc2cc1OC + Nc1ccc(C#CCN(C(=O)Cc2ncc(C(F)(F)F)cc2C(F)(F)F)c2ccc(F)cc2)nn1
IC50 (second compound 0.0316 µM): > 10 µM | IC50 (second compound 0.1 µM): > 10 µM | IC50 (second compound 0.316 µM): > 10 µM | IC50 (second compound 1 µM): > 10 µM | IC50 (second compound 3.16 µM): > 10 µM | IC50 (second compound 10 µM): > 10 µM | viability, T/C [1]: 105% | viability, T/C [2]: 105% | viability, T/C [3]: 103% | viability, T/C [4]: 93.3% | viability, T/C [5]: 108% | viability, T/C [6]: 104% | viability, T/C [7]: 103% | viability, T/C [8]: 98.5% | viability, T/C [9]: 100% | viability, T/C [10]: 98.5% | viability, T/C [11]: 115% | viability, T/C [12]: 110% | viability, T/C [13]: 104% | viability, T/C [14]: 102% | viability, T/C [15]: 103% | viability, T/C [16]: 108% | viability, T/C [17]: 105% | viability, T/C [18]: 116% | viability, T/C [19]: 105% | viability, T/C [20]: 91.4% | viability, T/C [21]: 105% | viability, T/C [22]: 104% | viability, T/C [23]: 95.2% | viability, T/C [24]: 109% | viability, T/C [25]: 97% | viability, T/C [26]: 98.1% | viability, T/C [27]: 113% | viability, T/C [28]: 109% | viability, T/C [29]: 109% | viability, T/C [30]: 112% | viability, T/C [31]: 104% | viability, T/C [32]: 110% | viability, T/C [33]: 94.6% | viability, T/C [34]: 95% | viability, T/C [35]: 107% | viability, T/C [36]: 86.3%

O=C(c1cc(Cc2n[nH]c(=O)c3ccccc23)ccc1F)N1CCN(C(=O)C2CC2)CC1 + Cc1cccc(N(C)C(=O)C2C(O)CCN2c2nc(C)cc(C(F)(F)F)c2C#N)c1
IC50 (second compound 0.0316 µM): > 10 µM | IC50 (second compound 0.1 µM): > 10 µM | IC50 (second compound 0.316 µM): > 10 µM | IC50 (second compound 1 µM): > 10 µM | IC50 (second compound 3.16 µM): > 10 µM | IC50 (second compound 10 µM): > 10 µM | viability, T/C [1]: 108% | viability, T/C [2]: 95.2% | viability, T/C [3]: 101% | viability, T/C [4]: 97.2% | viability, T/C [5]: 96.8% | viability, T/C [6]: 83% | viability, T/C [7]: 105% | viability, T/C [8]: 103% | viability, T/C [9]: 101% | viability, T/C [10]: 99.3% | viability, T/C [11]: 95.4% | viability, T/C [12]: 80% | viability, T/C [13]: 103% | viability, T/C [14]: 103% | viability, T/C [15]: 97.5% | viability, T/C [16]: 94.6% | viability, T/C [17]: 100% | viability, T/C [18]: 80.2% | viability, T/C [19]: 115% | viability, T/C [20]: 93.3% | viability, T/C [21]: 102% | viability, T/C [22]: 103% | viability, T/C [23]: 100% | viability, T/C [24]: 84.7% | viability, T/C [25]: 110% | viability, T/C [26]: 95.8% | viability, T/C [27]: 103% | viability, T/C [28]: 99.6% | viability, T/C [29]: 98.9% | viability, T/C [30]: 81.6% | viability, T/C [31]: 99.8% | viability, T/C [32]: 101% | viability, T/C [33]: 94.1% | viability, T/C [34]: 96.4% | viability, T/C [35]: 89.4% | viability, T/C [36]: 80.4%
